Experiment [1] addresses Human immunodeficiency virus type 1 protease (Human immunodeficiency virus 1, UniProt Q72874). Put plainly: Inhibition of HIV1 NL4-3 protease expressed in Escherichia coli TAP-106 cells using EDANS/DABCYL-labelled 10-amino acid containing protease cleavage site as substrate preincubated for 1 hr followed by substrate addition and measured for 60 mins by FRET assay.
Experiment [2] has as its target Protease (Human immunodeficiency virus 1, UniProt Q9YQ12, A71V/I50V). Kind of experiment: Inhibition of HIV1 NL4-3 protease I50V/A71V mutant expressed in Escherichia coli TAP-106 cells using EDANS/DABCYL-labelled 10-amino acid containing protease cleavage site as substrate preincubated for 1 hr followed by substrate addition and measured for 60 mins by FRET assay.

Experiment [3] has as its target Protease (Human immunodeficiency virus 1, UniProt Q9YQ12, I84V). Put plainly: Inhibition of HIV1 NL4-3 protease I84V mutant expressed in Escherichia coli TAP-106 cells using EDANS/DABCYL-labelled 10-amino acid containing protease cleavage site as substrate preincubated for 1 hr followed by substrate addition and measured for 60 mins by FRET assay.
The test system of experiment [4] is Human immunodeficiency virus 1. Put plainly: Antiviral activity against wild-type HIV1 NL4-3 infected in human TZM-bl cells infected with supernatants from virus-infected human 293T cells treated with compound for 18 hrs assessed as reduction in viral replication by luciferase assay. It counts as functional, organism-based. Conditions: Human immunodeficiency virus 1, NL4-3, 18 h.

Sequence of Protease (Human immunodeficiency virus 1, UniProt Q9YQ12, I84V) (Q9YQ12 entry or part of it I84V): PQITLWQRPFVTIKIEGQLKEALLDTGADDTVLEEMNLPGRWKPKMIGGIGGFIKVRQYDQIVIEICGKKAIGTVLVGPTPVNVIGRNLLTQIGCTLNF
Sequence of Protease (Human immunodeficiency virus 1, UniProt Q9YQ12, A71V/I50V) (Q9YQ12 entry or part of it A71V/I50V): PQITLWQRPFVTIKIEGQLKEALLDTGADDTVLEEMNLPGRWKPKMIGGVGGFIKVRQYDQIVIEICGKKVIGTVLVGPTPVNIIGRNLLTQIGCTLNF

One may read the Ki as the equilibrium dissociation constant of an inhibitor or competing ligand from its target. For orientation: EC50 means the concentration needed to bring the measured effect to its halfway point. `COC(=O)N[C@H](C(=O)N[C@@H](Cc1ccccc1)[C@@H](O)C[C@H](Cc1ccccc1)NC(=O)O[C@H]1CO[C@H]2OCC[C@H]21)C(C)(C)C`: the inhibition constant Ki in experiment [1] worked out at 0.018 nM; on Protease [2], 0.273 nM; at Protease [3], 0.208 nM. For the same compound, the EC50 in experiment [4] was determined as 11 nM.
The matching figures for `COC(=O)N[C@H](C(=O)N[C@@H](Cc1ccccc1)[C@@H](O)C[C@H](Cc1ccccc1)NC(=O)O[C@H]1CO[C@H]2OCC[C@H]21)C(C)C`: 0.074 nM, 0.295 nM, 0.302 nM and 55 nM.
For `COC(=O)N[C@H](C(=O)N[C@@H](Cc1ccccc1)C[C@H](O)[C@H](Cc1ccccc1)NC(=O)O[C@H]1CO[C@H]2OCC[C@H]21)C(C)(C)C` the same measures were 0.013 nM, 0.072 nM, 0.372 nM and 39 nM.
Regarding `CC[C@@H](C)[C@H](NC(=O)OC)C(=O)N[C@@H](Cc1ccccc1)[C@@H](O)C[C@H](Cc1ccccc1)NC(=O)O[C@H]1CO[C@H]2OCC[C@H]21`, the Ki stood at 0.027 nM in experiment [1], 0.029 nM on Protease [2] and 0.091 nM at Protease [3]. Besides, in experiment [4], the concentration for a half-maximal effect (EC50) was found to be 240 nM.
`Cc1cccc(C)c1OCC(=O)N[C@@H](Cc1ccccc1)[C@@H](O)C[C@H](Cc1ccccc1)NC(=O)O[C@H]1CO[C@H]2OCC[C@H]21`: the inhibitory constant (Ki) stood at 0.017 nM in experiment [1], 0.072 nM on Protease [2] and 0.069 nM on Protease [3]. For the same compound, the 50% effective concentration (EC50) in experiment [4] was found to be 38 nM.
For the compound `COC(=O)N[C@H](C(=O)N[C@@H](Cc1ccccc1)C[C@H](O)[C@H](Cc1ccccc1)NC(=O)O[C@H]1CO[C@H]2OCC[C@H]21)C1CCCC1`, the Ki came out at 0.161 nM in experiment [1], 1.39 nM at Protease [2] and 1.18 nM on Protease [3].
For `COC(=O)N[C@@H](C)C(=O)N[C@@H](Cc1ccccc1)[C@@H](O)C[C@H](Cc1ccccc1)NC(=O)O[C@H]1CO[C@H]2OCC[C@H]21`, the Ki was determined as 0.019 nM in experiment [1], 0.073 nM at Protease [2] and 0.069 nM on Protease [3]. Further, the 50% effective concentration (EC50) in experiment [4] turned out to be 66 nM.
As for `COC(=O)NC1(C(=O)N[C@@H](Cc2ccccc2)[C@@H](O)C[C@H](Cc2ccccc2)NC(=O)O[C@H]2CO[C@H]3OCC[C@H]32)CCCC1`, the Ki in experiment [1] came to 46 nM; at Protease [2], 484 nM; at Protease [3], 236 nM.
The matching figures for `COC(=O)N[C@H](C(=O)N[C@@H](Cc1ccccc1)[C@@H](O)C[C@H](Cc1ccccc1)NC(=O)O[C@H]1CO[C@H]2OCC[C@H]21)C1CC1`: 0.571 nM, 1.66 nM and 1.82 nM.
Regarding `Cc1cccc(C)c1OCC(=O)N[C@@H](Cc1ccccc1)C[C@H](O)[C@H](Cc1ccccc1)NC(=O)O[C@H]1CO[C@H]2OCC[C@H]21`, the Ki in experiment [1] worked out at 0.037 nM; at Protease [3] it was 0.259 nM. For the same compound, the concentration for a half-maximal effect (EC50) in experiment [4] was 16 nM.
`COC(=O)NC1(C(=O)N[C@@H](Cc2ccccc2)C[C@H](O)[C@H](Cc2ccccc2)NC(=O)O[C@H]2CO[C@H]3OCC[C@H]32)CCCC1`: the values for the inhibitory constant (Ki) (in experiment [1]; on Protease [2]; at Protease [3]) were 7.3 nM, 40 nM and 191 nM, respectively.
For `CC[C@H](C)[C@H](NC(=O)OC)C(=O)N[C@@H](Cc1ccccc1)[C@@H](O)C[C@H](Cc1ccccc1)NC(=O)O[C@H]1CO[C@H]2OCC[C@H]21`, the Ki was 0.055 nM in experiment [1], 0.56 nM on Protease [2] and 0.198 nM at Protease [3]. Also, the half-maximal effective concentration (EC50) in experiment [4] amounted to 70 nM.
With `COC(=O)N[C@H](C(=O)N[C@@H](Cc1ccccc1)[C@@H](O)C[C@H](Cc1ccccc1)NC(=O)O[C@H]1CO[C@H]2OCC[C@H]21)C1CCCC1`, the Ki in experiment [1] came to 0.235 nM; at Protease [2] it was 2.35 nM; at Protease [3], 0.71 nM.
With `Cc1cccc(C)c1OCC(=O)N[C@@H](Cc1ccccc1)[C@@H](O)C[C@H](Cc1ccccc1)NC(=O)[C@H](C(C)C)N1CCCNC1=O` [LOPINAVIR], the EC50 in experiment [4] stood at 12 nM.

Source of the values: ChEMBL document CHEMBL4627412.
